Results on 2 molecules are retold here after the NIST ThermoML archive (doi:10.1016/j.fluid.2005.12.017).

Numbers after ± are expanded uncertainties.

For series [1] the following is noted: for molar volume: 101.33 kPa, Pycnometric method; for Normal melting temperature: DTA.
Series [2] in a line: Molar enthalpy of transition or fusion. Conditions: Crystal; DSC.

Take `COC1=C(OC)C(=O)C(C/C=C(\C)CC/C=C(\C)CC/C=C(\C)CC/C=C(\C)CC/C=C(\C)CC/C=C(\C)CC/C=C(\C)CC/C=C(\C)CC/C=C(\C)CCC=C(C)C)=C(C)C1=O` [Coenzyme Q10]: the molar volume in series [1] (323.15 K, Crystal) came out at 0.0009 ± 1e-05 m3/mol; in series [1] (323.15 K, Liquid), 0.00095 ± 1e-05 m3/mol. For the same molecule, the Normal melting temperature in series [1] (Crystal) was 49.4 ± 0.5 °C. Besides, in series [2], the “Molar enthalpy of transition or fusion” value is 19.6 ± 0.478 kcal/mol.
As to `CCCCCCCCCCCCCCCC(=O)OCC(COC(=O)CCCCCCCCCCCCCCC)OC(=O)CCCCCCCCCCCCCCC` [1,2,3-propanetriyl tri(hexadecanoate)], the molar volume in series [1] (338.15 K, Crystal) was 0.00087 ± 1e-05 m3/mol; in series [1] (338.15 K, Liquid), 0.00093 ± 1e-05 m3/mol. For the same molecule, the Normal melting temperature in series [1] (Crystal) stood at 64.2 ± 0.5 °C. Moreover, the “Molar enthalpy of transition or fusion” value in series [2] was found to be 28.9 ± 0.478 kcal/mol.
